Reference: the NIST ThermoML archive (doi:10.1016/j.fluid.2017.10.027)

Settings: Liquid; for mass density: Vibrating tube method; for speed of sound: Sing-around technique in a fixed-path interferometer

CCCCOCCO [2-butoxyethan-1-ol]
Settings	mass density, 100 kPa [kg/m3]	mass density, 101.33 kPa [kg/m3]	mass density, 2500 kPa [kg/m3]	mass density, 5000 kPa [kg/m3]	mass density, 10000 kPa [kg/m3]	mass density, 15000 kPa [kg/m3]	mass density, 20000 kPa [kg/m3]	mass density, 25000 kPa [kg/m3]	mass density, 30000 kPa [kg/m3]	speed of sound, 101.33 kPa [m/s]
293.15 K	900	–	902	903	907	910	913	916	919	–
298.15 K	–	896.17	–	–	–	–	–	–	–	1304.7
303.15 K	892	–	893	895	899	902	905	909	912	–
313.15 K	883	–	885	887	889	894	898	901	904	–
323.15 K	873	–	875	877	879	886	890	893	896	–
333.15 K	866	–	868	870	874	878	882	885	889	–
343.15 K	857	–	860	862	866	870	874	877	881	–
353.15 K	849	–	851	853	857	862	866	869	873	–
363.15 K	839	–	842	844	849	853	857	861	865	–
373.15 K	830	–	833	835	840	845	849	853	857	–
383.15 K	821	–	823	826	831	836	841	845	849	–
393.15 K	811	–	814	817	822	827	832	837	841	–
403.15 K	801	–	804	807	813	819	824	829	833	–
413.15 K	790	–	794	797	804	810	815	821	825	–

CCCOCCO [2-propoxyethanol]
Settings	mass density, 100 kPa [kg/m3]	mass density, 101.33 kPa [kg/m3]	mass density, 2500 kPa [kg/m3]	mass density, 5000 kPa [kg/m3]	mass density, 10000 kPa [kg/m3]	mass density, 15000 kPa [kg/m3]	mass density, 20000 kPa [kg/m3]	mass density, 25000 kPa [kg/m3]	mass density, 30000 kPa [kg/m3]	speed of sound, 101.33 kPa [m/s]
293.15 K	911	–	913	915	918	922	925	928	931	–
298.15 K	–	907.23	–	–	–	–	–	–	–	1298.8
303.15 K	903	–	904	906	910	913	917	920	923	–
313.15 K	894	–	896	898	901	905	908	912	915	–
323.15 K	885	–	887	889	893	897	900	904	907	–
333.15 K	876	–	878	880	884	888	892	895	899	–
343.15 K	867	–	869	871	875	879	883	887	891	–
353.15 K	857	–	860	862	866	871	875	879	882	–
363.15 K	848	–	850	853	857	862	866	870	874	–
373.15 K	838	–	840	843	848	853	858	862	866	–
383.15 K	828	–	830	833	839	844	849	853	858	–
393.15 K	817	–	820	823	829	835	840	845	849	–
403.15 K	806	–	810	813	819	825	831	836	841	–
413.15 K	795	–	799	803	810	816	822	827	832	–

CCOCCO [2-ethoxyethan-1-ol]
Settings	mass density, 100 kPa [kg/m3]	mass density, 101.33 kPa [kg/m3]	mass density, 2500 kPa [kg/m3]	mass density, 5000 kPa [kg/m3]	mass density, 10000 kPa [kg/m3]	mass density, 15000 kPa [kg/m3]	mass density, 20000 kPa [kg/m3]	mass density, 25000 kPa [kg/m3]	mass density, 30000 kPa [kg/m3]	speed of sound, 101.33 kPa [m/s]
293.15 K	931	–	933	934	938	941	944	947	950	–
298.15 K	–	925.64	–	–	–	–	–	–	–	1305.7
303.15 K	922	–	924	925	929	932	936	939	942	–
313.15 K	913	–	914	916	920	924	927	930	933	–
323.15 K	903	–	905	907	911	915	918	922	925	–
333.15 K	894	–	896	898	902	906	910	913	917	–
343.15 K	884	–	886	889	893	897	901	905	908	–
353.15 K	874	–	877	879	884	888	892	896	900	–
363.15 K	864	–	867	869	874	879	883	887	891	–
373.15 K	854	–	857	859	865	869	874	878	882	–
383.15 K	843	–	846	849	855	860	865	869	874	–
393.15 K	832	–	836	839	845	850	855	860	865	–
